In patent US20220241259A1, “COMPOSITIONS AND METHODS USING TRIGONELLINE AND VITAMINS FOR PREVENTING OR TREATING CONDITIONS OR DISORDERS IN SKELETAL MUSCLE” (SOCIETE DES PRODUITS NESTLE S.A., priority 2019, published 2022):

Tests used:
C57BL/6JRj male mice = assay: Liver NAD+ in mice after oral gavage; type: in vivo; settings: equimolar of 300 mg/kg trigonelline, 120 minutes, compared to the control (FIG. 5)
Experimental: 10 weeks C57BL/6JRj male mice received trigonelline (sigma #T5509) or fenugreek seed extract enriched in trigonelline (40.45% trigonelline) by oral gavage (equimolar of 300 mg/kg trigonelline, n=8/group). After 120 minutes treatment, the liver was harvested and flash frozen in liquid nitrogen. NAD+ was measured in liver using an enzymatic method adapted from Dall, M., et al., Mol Cell Endocrinol, 2018. 473: p. 245-256.

[1] = test system: Human Skeletal Muscle Myotubes (HSMM); assay: Colorimetric NAD+ quantification in differentiated human primary myoblasts; type: cell-based; settings: 16 h, different doses, compared to the control (FIG. 4)
Experimental: After one day, the differentiation is induced by a medium change for 4 days. Cells were treated with synthetic trigonelline monohydrate (FIG. 4A) or with Fenugreek seed extract enriched in trigonelline containing 40.45% trigonelline (FIG. 4B) for 16 h at difference doses. NAD+ was measured using colorimetric NAD+ quantification assay (Biovision NAD+/NADH Quantitation Colorimetric Kit #k337-100).

[2] = test system: Human Skeletal Muscle Myotubes (HSMM); settings: 6 h
Experimental: Human primary myoblasts from two different donors were seeded in 6 well plates at a density of 200′000 cells per well in skeletal muscle growth medium (SKM-M, AMSbio). After one day, the differentiation was induced by a medium change for 4 days using differentiation culture medium (Gibco No. 31330-028). Cells were treated with isotopically labelled trigonelline (^13C carbonyl; 3^2H on methyl) for 6 h.
Cell extracts were separated on a Vanquish UHPLC+ focused LC system (Thermo Scientific) with a hydrophilic liquid chromatography (HILIC) iHILIC-Fusion(P) column (Hilicon) carrying the dimensions 150×2.1 mm, 5 μm and a guard column (iHILIC-fusion(P), Hilicon) in front. The separation of metabolites was achieved by applying a linear solvent gradient in normal phase at 0.25 mL/min flow rate and 35° C. of temperature. As mobile phase, solvent A was water with 10 mM ammonium acetate and 0.04% (v/v) ammonium hydroxide, pH ˜9.3, and solvent B was acetonitrile.
The eluting metabolites were analyzed with an Orbitrap Fusion Lumos mass spectrometer (Thermo Scientific) with a heated electrospray ionization (H-ESI) source in positive and negative mode at a resolution of 60,000 at m/z of 200. Instrument control and data analysis were conducted using Xcalibur (Thermo Scientific).

C. elegans [3] = settings: 1 mM
Experimental: C. elegans mobility test was performed using the Movement Tracker software (Mouchiroud, L. et al. Curr Protoc Neurosci 77, 8.37.1-8.37.21 (2016)). The experiments were repeated at least twice. Trigonelline treatment and experimental measurements were started at Day 1 of wild type N2 worm adulthood, in a regimen of chronic exposure till experiments termination.

C. elegans [4] = settings: 1 mM, day 8 and day 11 old worms (FIG. 7D)
Description: 45 to 60 worms per condition were manually scored for mobility after poking. Worms that were unable to respond to any repeated stimulation were scored as dead. […] Trigonelline treatment and experimental measurements were started at Day 1 of wild type N2 worm adulthood, in a regimen of chronic exposure til experiments termination.

C. elegans [5] = settings: 1 mM, chronic exposure from Day 1 adulthood (FIG. 7A)
Experimental: Worm lifespan tests were performed using about 100 animals per condition and scored manually every other day. Trigonelline treatment and experimental measurements were started at Day 1 of wild type N2 worm adulthood, in a regimen of chronic exposure till experiments termination.

[6] = test system: RW1596 (myo-3p::GFP) worms; settings: 1 mM trigonelline chloride, 11 day old worms vs age matched control
Experimental: RW1596 (myo-3p::GFP) worms were collected at Day 1 (young adults) and at Day 11 (aged animals) for muscle integrity assessment. Worms were immobilized with tetramisole and analyzed by confocal microscopy, to assess the muscle fibers morphology shown by GFP fluorescence imaging. Trigonelline treatment with 1 mM trigonelline chloride and experimental measurements were started at Day 1 of wild type N2 worm adulthood, in a regimen of chronic exposure till experiments termination.

wild type N2 worms = settings: 1 mM trigonelline chloride, day 8 old worms (FIG. 8)
Experimental: Absolute quantification of the mtDNA copy number in wild type N2 worms was performed by real-time PCR. Relative values for nduo-1, and act-1 were compared within each sample to generate a ratio representing the relative level of mitochondrial DNA per nuclear genome. The average of at least two technical repeats was used for each biological data point. Each experiment was performed on at least ten independent biological samples (individual worms). Trigonelline treatment with 1 mM trigonelline chloride and experimental measurements were started at Day 1 of wild type N2 worm adulthood, in a regimen of chronic exposure till experiments termination.

C[n+]1cccc(C(=O)O)c1.[OH-] [chemically synthesized trigonelline]
NAD+ content in the liver (C57BL/6JRj male mice): significant increase | NAD+ content [1]: significant increase

[2H]C([2H])([2H])[n+]1cccc([13C](=O)[O-])c1 [labelled trigonelline]
relative abundance of labelled NAD+ (M+ 1) ([2]; labelled trigonelline 500 μm, vs naturally occurring NAD+ control (FIG. 2B)): increase in relative abundance of labelled NAD+ (M+ 1)

C[n+]1cccc(C(=O)O)c1 [trigonelline chloride]
distance travelled during spontaneous mobility assay (C. elegans [3]; advanced aging phase, compared to control (FIG. 7C)): significantly increased | mean speed during spontaneous mobility assay (C. elegans [3]; from day 1 adulthood, compared to control (FIG. 7B)): increased the mean speed | stimulated mobility score (percentage of worms responsive to a physical stimulus) (C. elegans [4]): more responsive to a physical stimulus than the control | lifespan increase (C. elegans [5]): 21%

C[n+]1cccc(C(=O)[O-])c1 [trigonelline, 1-methylpyridin-1-ium-3-carboxylate]
NAD+ relative concentration ([2]; 500 μm, HSMM from 2 donors, LC-MS, relative to control (FIG. 2A)): enhancement of NAD+ | myofibrillar structure (GFP-tagged myosin) [6]: improved more organized myofibrillar structure | mitochondrial (nduo-1) relative to nuclear (act-1) DNA ratio (wild type N2 worms): higher than in the control group
